In brackets after ≈: the same amount, converted by molar mass. Read-outs that look alike come from different tables or passages of the source. One block for each compound: values may come before it.
How the values were obtained:
[1] = Solubility Data for Compound 2; type: physicochemical
Factor Xa = Factor Xa (Homo sapiens, UniProt P00742); assay: Factor Xa inhibitory activity versus thrombin; type: biochemical; conditions: at concentrations which do not inhibit, or inhibit to a lesser extent
[2] = Solubility data for Compound 1 and the Antifungal; type: physicochemical
[3] = comparison compound of Kai T. et al., cited from earlier work

Sequence of Factor Xa (P00742 235-488 limits assumed): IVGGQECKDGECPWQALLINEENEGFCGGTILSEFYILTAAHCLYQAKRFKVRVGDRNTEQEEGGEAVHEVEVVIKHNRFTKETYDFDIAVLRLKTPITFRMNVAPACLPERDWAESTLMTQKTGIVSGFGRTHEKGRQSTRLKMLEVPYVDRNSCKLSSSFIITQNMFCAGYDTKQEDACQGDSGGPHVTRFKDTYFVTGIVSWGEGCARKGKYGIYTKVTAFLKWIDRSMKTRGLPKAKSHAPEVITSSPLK
Sequence of Factor Xa (P00742 41-179 partner limits assumed): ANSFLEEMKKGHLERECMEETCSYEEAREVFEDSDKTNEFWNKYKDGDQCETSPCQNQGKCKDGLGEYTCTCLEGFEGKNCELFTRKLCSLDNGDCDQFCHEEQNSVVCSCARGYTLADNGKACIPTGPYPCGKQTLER

solubility ([1]; 0.1M hydrochloric acid, pH 1.4, simulated gastric fluid): 585 µg/mL (≈ 1220 µM) | solubility ([1]; 0.9% saline, pH 2.5, saline or isotonic): 227 µg/mL (≈ 472 µM) | solubility ([1]; aqueous buffer, pH 3 citrate buffer, pH 2.9): 193 µg/mL (≈ 401 µM) | solubility ([1]; aqueous buffer, pH 5 citrate buffer, pH 5.0): 3 µg/mL (≈ 6.24 µM) | solubility ([1]; aqueous buffer, pH 7 phosphate buffer, pH 7.1): < 2 µg/mL | solubility ([1]; water, pH 2.6, water): 301 µg/mL (≈ 626 µM)
SMILES: O=C(c1ccc(-c2ccncc2)cc1)N1CCN(S(=O)(=O)c2cc3cc(Cl)ccc3[nH]2)CC1 [Compound 2, 1-(5-chloroindol-2-ylsulfonyl)-4-[4-(4-pyridyl)benzoyl]piperazine]
Stability of sample in solubility test ([1]; 0.1M sodium hydroxide, pH 12.7): NR* = no result, sample shows evidence of degradation.

solubility in the duodenum, ileum and colon ([2]; main sites of adsorption): low solubility | solubility ([2]; water): < 5 µg/mL
SMILES: O=C(c1ccc(-c2ccncc2)cc1)N1CCN(S(=O)(=O)c2ccc3cc(Cl)ccc3c2)CC1 [Compound 1, 1-(6-chloronaphth-2-ylsulfonyl)-4-[4-(4-pyridyl)benzoyl]piperazine]
Factor Xa inhibitory activity relative to thrombin inhibition (Factor Xa): possesses Factor Xa inhibitory activity at concentrations which do not inhibit, or which inhibit to a lesser extent, the enzyme thrombin | solubility at the acidic pH of the stomach ([2]; stomach pH): soluble within the acidic pH of the stomach

SMILES: CC(C)(Sc1ccc(-n2cncn2)nn1)C(O)(Cn1cncn1)c1ccc(F)cc1F (single isomer, unassigned; (+)) [Antifungal, (+)-2-(2,4-difluorophenyl)-3-methyl-1-(1H-1,2,4-triazol-1-yl)-3-[6-(1H-1,2,4-triazol-1-yl)pyridazin-3-ylthio]butan-2-ol]
solubility ([3]; Water): 1.2 µg/mL (≈ 2.7 µM) | solubility ([3]; pH1.2): 3.6 µg/mL (≈ 8.1 µM) | solubility ([3]; pH6.8): 1.2 µg/mL (≈ 2.7 µM)

Reference: patent US20040138231A1, “Pharmaceutical composition which comprise a solid dispersion of a hydroxypropyl-methylcellulose phthalate polymer” (priority 2001, published 2004)
